Results published in patent publication US8969573B2, “Compounds for the inhibition of cellular proliferation” (President and Fellows of Harvard College, priority 2010, dated 2015).
Like-named read-outs stand apart in the source and are kept apart here.

Assays:
CRL2813 human melanoma = assay: SRB assay (inhibition of cell proliferation); assay type: cell-based
Excerpt: (§1) A sulfur rhodamine B (SRB) assay was used to determine the extent of inhibition of cell proliferation as a measure of the anti-cancer activity of compounds of the present disclosure. The reagent SRB binds to cellular proteins and absorbs light proportionally to the cellular protein content, which is a surrogate marker for the number of cells. According to aspects of the present disclosure, the assay can be used to with any cancer cell line including breast cancer cell lines, prostate cancer cell lines, melanoma cell lines, lung cancer cell lines or any other cell lines of the cancers described herein.
(§2) The following protocol was used to determine the growth characteristics of certain cell lines CRL2351 human breast cancer and CRL2813 human melanoma from which cell lines having doubling times less than 48 hours were selected for growth inhibition experiments. […] The following materials were used in addition to the cancel cell lines: complete (5% fetal calf serum added) tissue culture media, 96-well tissue culture plates, Sulforhodamine B dye (SRB, 0.57% w/w), […] (TCA, 10%), acetic acid glacial (1%) and 10 mM Tris base. The cells were prepared and plated. Cancer cells were grown to 80% confluency in an incubator. The cells were trypsinized per standard protocol or as needed for each cell line. The trypsin was neutralized, cells dissociated and counted. Each cell line was plated at a density of 500, 1000 and 3000 cells per well (six wells each) in five separate plates. The cells were then returned to the incubator. One plate was then removed each day starting day one after plating. 100 μl of 10% TCA was then added and the cells were fixed at 4° C. until all the cells were fixed. […] The cell growth for vehicle treatment is considered to be 100%. The optical density was then measured and plotted for each starting cell number and cell line against time. The percent cell growth inhibition was calculated as 100 minus the % of control cell growth. The % of control cell growth=((mean OD sample−Mean OD day 0)/(mean OD vehicle−Mean OD day 0))*100.

[1] = test system: CRL2351 human breast cancer; assay: SRB assay (inhibition of cell proliferation); assay type: cell-based; conditions: CRL2351 human breast cancer cells
Excerpt: as §1, §2

eIF4E/eIF4G interaction = eIF4E/eIF4G interaction (Homo sapiens, UniProt P06730); assay: Fluorescent polarization assay; assay type: binding; conditions: FITC eIF4G peptide and recombinant eIF4E, ratio to Z (4EGI-1 = 1)
Protocol: The difference between the two measurement yields net polarization which is considered full signal of the assay (100% control). […] The activity of compound at each concentration is determined by comparing the fluorescent polarization (FP) signal in the presence of compound to the control (no compound) value. The percent inhibition is =100-((FP compound/FP control)*100).

[2] = Homo sapiens, CRL2813, CRL2813 human melanoma cells, summary table, read-out: IC50 [μM} CRL2813
[3] = Homo sapiens, summary table, read-out: IC50 [μM} CRL2351
[4] = CRL2813 human melanoma cells, summary table, read-out: IC50 [μM} CRL2813
[5] = summary table, read-out: IC50 [μM} CRL2351
[6] = Homo sapiens, Tables 1, 4, 5, read-out: SRB-IC50 (μM) 2351
[7] = Homo sapiens, CRL2813, CRL2813 human melanoma cells, Tables 1, 4, 5, read-out: SRB-IC50 (μM) 2813

eIF4E/eIF4G interaction, sequence (P06730 whole entry): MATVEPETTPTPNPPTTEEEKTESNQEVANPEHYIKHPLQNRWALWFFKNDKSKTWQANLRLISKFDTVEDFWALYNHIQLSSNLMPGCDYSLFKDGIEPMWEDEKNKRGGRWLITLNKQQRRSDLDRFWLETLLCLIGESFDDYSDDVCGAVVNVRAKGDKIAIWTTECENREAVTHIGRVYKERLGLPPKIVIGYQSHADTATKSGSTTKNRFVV

IC50 (CRL2813 human melanoma; [2]) | IC50 [1, 3] | Fp (ratio to Z) (eIF4E/eIF4G interaction) | IC50 (CRL2813 human melanoma; [4]) | IC50 [1, 5] | IC50 (CRL2813 human melanoma; CRL2813 human melanoma cells, Tables 1, 4, 5, read-out: SRB-IC50 (μM) 2813) | IC50 [1, 6] | IC50 (CRL2813 human melanoma; [7]) | Structure (SMILES)
17 ± 1.29 µM | > 20 µM | 1.5 | – | – | – | – | – | COc1ccc(-c2nc(NN=C(Cc3ccccc3[N+](=O)[O-])C(=O)O)sc2-c2ccc(-n3cc(CCCO)nn3)cc2)cc1 [KY-447]
3 ± 0.5 µM | 16 ± 4.9 µM | 2.4 | – | – | – | – | – | COc1ccc(-c2nc(NN=C(Cc3ccccc3[N+](=O)[O-])C(=O)O)sc2-c2ccc(Cl)c(Cl)c2)cc1 [KY-371A11-B1]
3 ± 0.2 µM | 1.2 ± 0.04 µM | 1.2 | – | – | – | – | – | COc1ccc(-c2nc(NN=C(Cc3ccccc3[N+](=O)[O-])C(=O)O)sc2-c2ccc(N=[N+]=[N-])cc2)cc1 [KY-379S]
3 µM | 2.5 µM | 1.1 | – | – | – | – | – | Cc1ccc(-c2nc(NN=C(Cc3ccccc3[N+](=O)[O-])C(=O)O)sc2-c2ccc(Cl)cc2)cc1 [KY-351PR]
2 ± 0.19 µM | 0.6 ± 0.02 µM | 0.75 | – | – | – | – | – | COc1cc(-c2nc(NN=C(Cc3ccccc3[N+](=O)[O-])C(=O)O)sc2-c2ccc(Cl)c(Cl)c2)cc(OC)c1OC [KY-369S]
< 1 µM | < 1 µM | 1.05 | – | – | – | – | – | O=C(O)/C(Cc1ccccc1[N+](=O)[O-])=N/Nc1nc2c(s1)CCc1cc(Cl)c(Cl)cc1-2 [PC-159F, 2-(2-(7,8-dichloro-4,5-dihydronaphtho[1,2-d]thiazol-2-yl)hydrazono)-3-(2-nitrophenyl)propanoic acid]
– | – | 1 | 0.1 µM | 0.7 µM | – | – | – | COc1ccc(-c2sc(N/N=C(/Cc3ccccc3[N+](=O)[O-])C(=O)O)nc2-c2ccc(-c3ccccc3)cc2)cc1 [KY-577SF, 2-{[4-Biphenyl-4-yl-5-(4-methoxy-phenyl)-thiazol-2-yl]-hydrazono}-3-(2-nitro-phenyl)-propionic acid]
7.5 µM | 13.5 µM | 0.85 | – | – | – | – | – | O=C(O)/C(Cc1c[nH]c2ccccc12)=N\Nc1nc(-c2ccc(Cl)c(Cl)c2)cs1 [KY-753, (Z/E)-2-(2-(4-(3,4-dichlorophenyl)thiazol-2-yl)hydrazono)-3-(1H-indol-3-yl)propanoic acid]
– | – | 0.67 | 1 µM | 0.6 µM | – | – | – | COc1ccc(-c2nc(NN=C(Cc3ccccc3[N+](=O)[O-])C(=O)O)sc2-c2ccc(OC)cc2)cc1 [KY-323A]
– | – | 0.91 | 12 µM | 2.7 µM | 11.9 µM | 2.8 µM | – | [N-]=[N+]=NCCCOc1ccc(-c2csc(N/N=C(/Cc3ccccc3[N+](=O)[O-])C(=O)O)n2)cc1 [KH-167s]
14.5 µM | 0.8 µM | 0.92 | – | – | – | 0.8 µM | 16.5 µM | [N-]=[N+]=NCCCOc1ccccc1-c1csc(N/N=C(/Cc2ccccc2[N+](=O)[O-])C(=O)O)n1 [KH-170]
– | – | 1 | 3.5 µM | 11.7 µM | – | – | – | COc1ccc(-c2sc(N/N=C(/Cc3ccccc3[N+](=O)[O-])C(=O)O)nc2-c2ccc(-c3ccccc3)cc2)cc1 [KY-577S, 2-{[4-Biphenyl-4-yl-5-(4-methoxy-phenyl)-thiazol-2-yl]-hydrazono}-3-(2-nitro-phenyl)-propionic acid]
11.6 µM | 13.2 µM | 0.9 | – | – | – | – | – | CCCc1sc(N/N=C(/Cc2ccccc2[N+](=O)[O-])C(=O)O)nc1-c1ccc(OC)cc1 [KY-582S]
> 20 µM | > 20 µM | 4 | – | – | – | – | – | O=C(O)/C(=N\Nc1nc(-c2ccc(Cl)c(Cl)c2)cs1)c1c[nH]c2ccccc12 [KY-689, {[4-(3,4-Dichloro-phenyl)-thiazol-2-yl]-hydrazono}-(1H-indol-3-yl)-acetic acid]
– | – | 0.94 | 2.2 µM | 10 µM | – | – | – | O=C(O)C(=NNc1nc(-c2ccc(Cl)c(Cl)c2)cs1)c1ccccc1[N+](=O)[O-] (stereo in doubt) [KY-782-E, (E)-2-(2-(4-(3,4-dichlorophenyl)thiazol-2-yl)hydrazono)-2-(2-nitrophenyl)acetic acid]
3 µM | 3.5 µM | 0.65 | – | – | – | – | – | O=C(O)/C(Cc1ccccc1)=N/Nc1nc(-c2ccc(Cl)c(Cl)c2)cs1 [KY-706bc]
12.5 µM | – | 4 | – | > 20 µM | – | – | – | Br.CCN(CC)c1ccc(-c2csc(N/N=C(\Cc3ccccc3[N+](=O)[O-])C(=O)O)n2)cc1 [KY-615S]
6.2 µM | 15.5 µM | 0.62 | – | – | – | – | – | COc1ccc(-c2sc(N/N=C(\Cc3ccccc3[N+](=O)[O-])C(=O)O)nc2-c2ccc(SC)cc2)cc1 [KY-611-pri-S]
> 20 µM | 9 µM | 0.69 | – | – | – | – | – | O=C(O)C(Cc1ccccc1[N+](=O)[O-])=NNc1nc(-c2cc(Br)cc(Br)c2O)cs1 [KH-102BII]
2.5 µM | 9 µM | 0.6 | – | – | – | – | – | O=C(O)c1nn(-c2nc(-c3ccccc3)cs2)c2ccc([N+](=O)[O-])cc12 [RYF-292]
5 ± 1.74 µM | 4 ± 0.51 µM | 1.2 | – | – | – | – | – | COc1ccc(-c2nc(NN=C(Cc3ccccc3[N+](=O)[O-])C(=O)O)sc2-c2ccc(OC)c(OC)c2)cc1 [KY-341PRI]
> 20 µM | > 20 µM | 0.7 | – | – | – | – | – | COc1ccc(-c2nc(N/N=C(\Cc3ccccc3[N+](=O)[O-])C(=O)O)sc2-c2cccc(-n3cc(CO)nn3)c2)cc1 [KY-467F]
– | – | 2 | < 0.54 µM | < 0.54 µM | – | – | – | COc1ccc(-c2nc(N/N=C(\Cc3ccccc3[N+](=O)[O-])C(=O)O)sc2-c2ccc(-c3ccccc3)cc2)cc1 [KY-435-S]
9 µM | 5 µM | 0.80 | – | – | – | 5 µM | 9 µM | [N-]=[N+]=NCCOc1ccc(-c2csc(N/N=C(/Cc3ccccc3[N+](=O)[O-])C(=O)O)n2)cc1 [KH-166]
3 µM | 3 µM | 0.7 | – | – | – | – | – | NC(=O)/C(Cc1ccccc1[N+](=O)[O-])=N/Nc1nc(-c2ccc(Cl)c(Cl)c2)cs1 [KY-725]
13 ± 0.82 µM | > 20 µM | 1 | – | – | – | – | – | COc1ccc(-c2cn(-c3ccc(-c4sc(NN=C(Cc5ccccc5[N+](=O)[O-])C(=O)O)nc4-c4ccc(OC)cc4)cc3)nn2)cc1 [KY-445]
– | – | 0.6 | 7 ± 2.6 µM | 20 ± 3.7 µM | – | – | – | COc1ccc(-c2nc(NN=C(Cc3ccccc3[N+](=O)[O-])C(=O)O)sc2-c2ccc(OC)cc2)cc1 [KY-323B]
– | 3 µM | 0.82 | – | – | – | – | – | O=C(O)[C@@H](Cc1cccc([N+](=O)[O-])c1)Nc1nc(-c2ccc(Cl)c(Cl)c2)cs1 [KY-365]
– | > 20 µM | 0.86 | – | – | – | – | – | O=C(O)C(=NNc1nc(-c2ccc(Cl)c(Cl)c2)cs1)c1cccc([N+](=O)[O-])c1 (stereo in doubt) [KY-788-Z, (Z)-2-(2-(4-(3,4-dichlorophenyl)thiazol-2-yl)hydrazono)-2-(3-nitrophenyl)acetic acid]
